Experiments:
HA-RXFP3 D75A = biological target: T1, HA-RXFP3 D75A (Homo sapiens, UniProt Q9NSD7, D75A); assay: Competition binding with Eu-H3/I5, HA-RXFP3 D75A
T1 construct: expressed in transfected cells; host or cells: HEK-293T
T1 sequence (Q9NSD7 2-469 D75A limits assumed): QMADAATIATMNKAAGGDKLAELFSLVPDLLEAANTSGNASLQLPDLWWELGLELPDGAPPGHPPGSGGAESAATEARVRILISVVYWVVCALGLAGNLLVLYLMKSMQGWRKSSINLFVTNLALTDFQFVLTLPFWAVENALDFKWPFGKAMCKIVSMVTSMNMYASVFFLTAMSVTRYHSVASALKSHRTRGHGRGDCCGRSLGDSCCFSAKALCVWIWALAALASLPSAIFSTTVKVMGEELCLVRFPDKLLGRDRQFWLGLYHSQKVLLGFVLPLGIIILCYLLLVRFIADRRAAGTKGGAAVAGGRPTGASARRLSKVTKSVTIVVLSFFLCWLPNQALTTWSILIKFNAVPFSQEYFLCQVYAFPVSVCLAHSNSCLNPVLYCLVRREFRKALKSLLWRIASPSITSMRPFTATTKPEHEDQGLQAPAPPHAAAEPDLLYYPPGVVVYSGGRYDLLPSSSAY
Protocol: (§1) PCR reactions and cloning were undertaken as previously described ([Scott et al., 2006], [2012]).
The same protocol was used to prepare DNA templates of all Glu/Asp to Ala mutants, entailing a single codon change except for D47A/E51A, E55A/D58A, and E141A/D145A which required a double codon change both to Ala. The forward and reverse primers for all mutants are listed in Table 1 and mutagenesis reactions on pcDNA3.1zeo (+)-HA-RXFP3 were performed as previously described ([Scott et al., 2006]; [Yan et al., 2008]). […]
HEK-293T cells were transfected in 96 well optiplates (Perkin Elmer) with plasmids encoding the constructs of interest and Eu-H3/I5 binding assays conducted as described previously ([Luo et al., 2010]; [Haugaard-Kedstrom et al., 2011]). […] Binding data are expressed as mean ± standard error of mean (SEM) of % specific binding of triplicate measurements pooled from at least three independent experiments. Data were analyzed using Graphpad PRISM (Graphpad Inc.) and a non-linear regression one-site binding model was used to plot curves and calculate pIC50 values. […] The HA epitope was detected using a purified mouse monoclonal anti-HA antibody [HA.11(16B12), Covance] and a Alexafluor488-labeled goat anti mouse IgG (Invitrogen) in cell surface expression assays that were performed in 24 well plates as previously described ([Yan et al., 2008]). […]

HA-RXFP3 ∆1–33 = biological target: T2, HA-RXFP3 ∆1–33 (Homo sapiens, UniProt Q9NSD7); assay: Competition binding with Eu-H3/I5, HA-RXFP3 ∆1–33
T2 construct: expressed in transfected cells; host or cells: HEK-293T
T2 sequence (Q9NSD7 34-469): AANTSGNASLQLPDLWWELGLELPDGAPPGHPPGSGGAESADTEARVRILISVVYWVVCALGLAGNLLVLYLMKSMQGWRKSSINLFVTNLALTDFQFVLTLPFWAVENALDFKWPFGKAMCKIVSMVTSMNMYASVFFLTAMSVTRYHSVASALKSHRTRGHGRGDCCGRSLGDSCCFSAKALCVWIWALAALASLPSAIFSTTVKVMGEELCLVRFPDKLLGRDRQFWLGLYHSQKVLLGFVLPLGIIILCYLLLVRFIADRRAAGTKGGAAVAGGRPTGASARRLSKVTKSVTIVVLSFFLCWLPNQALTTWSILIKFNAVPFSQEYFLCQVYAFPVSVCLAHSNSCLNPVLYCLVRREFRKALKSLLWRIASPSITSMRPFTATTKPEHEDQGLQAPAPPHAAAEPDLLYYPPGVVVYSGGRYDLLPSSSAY
From the text: as §1
A pcDNA3.1zeo (+) vector with a start codon and HA tag (pcDNA3.1zeo (+)-HA) was produced by ligating a double stranded primer containing a BamHI site at the 5′ end followed by a start codon and HA tag and then a EcoRV blunt site at the 3′ end (Table 2) into a pcDNA3.1zeo (+) vector cut with BamHI and EcoRV. […]
HEK-293T cells were transfected in 96 well optiplates (Perkin Elmer) with plasmids encoding the constructs of interest and Eu-H3/I5 binding assays conducted as described previously ([Luo et al., 2010]; [Haugaard-Kedstrom et al., 2011]). […] Binding data are expressed as mean ± standard error of mean (SEM) of % specific binding of triplicate measurements pooled from at least three independent experiments. Data were analyzed using Graphpad PRISM (Graphpad Inc.) and a non-linear regression one-site binding model was used to plot curves and calculate pIC50 values. […] The HA epitope was detected using a purified mouse monoclonal anti-HA antibody [HA.11(16B12), Covance] and a Alexafluor488-labeled goat anti mouse IgG (Invitrogen) in cell surface expression assays that were performed in 24 well plates as previously described ([Yan et al., 2008]). […] Pooled data were analyzed using one-way ANOVA coupled to Newman–Keuls multiple comparison test for multiple group comparison.

RXFP4 = settings: ref Liu et al., 2003a; cited from earlier work
From the text: Relaxin-3 is a member of the relaxin peptide family. Peptides from this family activate relaxin family peptide (RXFP) receptors, which are Type I or Class A G protein-coupled receptors (GPCRs). […] The rela ... || Based on the hypothesis that coevolution of relaxin-3 and RXFP3 occurred in vertebrates and that residues important for relaxin-3 binding and activation should therefore be conserved we performed multiple sequence alignments of all vertebrate RXFP3 sequences. […] Figure 1A highlights sequence alignments of representative mammalian species (human, chimpanzee, rat, mouse, platypus) and representative lower vertebrate species (Frog and Zebrafish) from this analysis compa ... || Based on the hypothesis that coevolution of relaxin-3 and RXFP3 occurred in vertebrates, and in the knowledge that the key relaxin-3 B-chain residues are conserved across all vertebrate species ([Wilkinson et al., 2005b]), we performed multiple sequence alignments of all vertebrate RXFP3 sequences to identify highly conserved residues in the ELs and NT domain that may be involved in relaxin-3 binding. […] We have focused on glutamic (E) and aspartic acid (D) residues ...

In the case of `CC[C@H](C)[C@@H]1NC(=O)[C@H](Cc2ccccc2)NC(=O)[C@H](CCC(=O)O)NC(=O)[C@H](CCCNC(=N)N)NC(=O)CNC(=O)[C@@H](NC(=O)[C@H](CC(C)C)NC(=O)[C@H](CCCNC(=N)N)NC(=O)[C@@H](NC(=O)CNC(=O)[C@H](Cc2ccc(O)cc2)NC(=O)[C@@H]2CCCN2C(=O)[C@H](C)NC(=O)[C@H](C)NC(=O)[C@@H](N)CCCNC(=N)N)C(C)C)CSSC[C@@H]2NC(=O)[C@@H](NC(=O)[C@H](CO)NC(=O)[C@H](CO)NC(=O)[C@H](CO)NC(=O)[C@H](CC(C)C)NC(=O)CNC(=O)[C@H](C)NC(=O)[C@H](CC(C)C)NC(=O)[C@@H](NC(=O)[C@@H](N)CC(=O)O)C(C)C)CSSC[C@H](NC(=O)CNC(=O)[C@H](Cc3c[nH]c4ccccc34)NC(=O)[C@H](CCCCN)NC2=O)C(=O)N[C@@H](CO)C(=O)N[C@@H](CCCCN)C(=O)N[C@@H](CO)C(=O)N[C@@H](CCC(=O)O)C(=O)N[C@@H]([C@@H](C)CC)C(=O)N[C@@H](CO)C(=O)N[C@@H](CO)C(=O)N[C@@H](CC(C)C)C(=O)N[C@H](C(=O)O)CSSC[C@@H](C(=O)NCC(=O)NCC(=O)N[C@@H](CO)C(=O)N[C@@H](CCCNC(=N)N)C(=O)N[C@@H](Cc2c[nH]c3ccccc23)C(=O)O)NC(=O)[C@H]([C@@H](C)O)NC(=O)[C@H](Cc2ccccc2)NC(=O)[C@H]([C@@H](C)CC)NC(=O)[C@H](C(C)C)NC(=O)[C@H](C)NC(=O)[C@H](CCCNC(=N)N)NC1=O` [H3 relaxin], the IC50 (HA-RXFP3 D75A) is reported as 20 nM, the “affinity compared with HA-RXFP3” value (HA-RXFP3 D75A; competition binding) is reported as “no significant difference in the affinity” and the IC50 (HA-RXFP3 ∆1–33) is reported as 14.8 nM. For the same compound, the “effect on affinity of truncation” value (HA-RXFP3 ∆1–33; vs HA-RXFP3, competition binding) was “no significant effect on the affinity” and the “binding to and activation of RXFP4” value (RXFP4) was “binds to and activates human RXFP4”.
